Our source for the mean cell viability and residual cell viability values is patent US12303492B2, “Compounds for treating TNBC” (Purdue Pharma L.P., priority 2017, dated 2025).

This data set deals with HCC1143 p13 spheroid (TNBC, BL1 subtype, BRCA-1 wt). The data set is described as follows: TNBC spheroid model, residual cell viability by standard ATP assay. Type of data set: cell-based. Particulars: for mean cell viability: mean of six repeats. On the procedure: The activity of EDO-S101 alone and in combination was evaluated in triple negative breast cancer (TNBC) cells lines using a spheroid model.
Heterotypic tumour spheroids were prepared from the individual primary breast cancer tissue. The tumour samples were mechanically and enzymatically digested using an enzyme cocktail (Roche, Penzberg Germany), cell viability determined using the trypan-blue exclusion test, and spheroids seeded at a cell density of 50,000 using a modified liquid overlay method. After 48 h in cell culture under standard conditions, successful spheroid formation was documented photographically before starting treatment.
The spheroids were treated with EDO-S101 (5 μM, 10 μM) alone and in combination with carboplatin and/or the PARP inhibitor olaparib (Table 2) for different periods of time (48, 72 h). Solvent controls and an untreated (medium) control was used under the same culture conditions. Treatment efficacy of all drugs was analysed with a standard ATP assay.
The results are the mean of six repeats per treatment based on the results of the ATP assay.
HCC1143 cells are from the BL1 triple negative breast cancer subtype.

For the compound `Cn1c(CCCCCCC(=O)NO)nc2cc(N(CCCl)CCCl)ccc21` [EDO-S101, 7-(5-(bis(2-chloroethyl)amino)-1-methyl-1H-benzo[d]imidazol-2-yl)-N-hydroxyheptanamide], the mean cell viability reads like this: (HCC1143 p13 spheroids, T48 h, EDO S101 5 μM alone or with carboplatin 40.84 μg/ml and/or olaparib 6.6 μg/ml) 85.75 % solvent control; (HCC1143 p13 spheroids, T48 h, EDO S101 10 μM alone or with carboplatin 40.84 μg/ml and/or olaparib 6.6 μg/ml) 57.43 % solvent control; (HCC1143 spheroids, T72 h, EDO S101 5 μM alone or with carboplatin 40.84 μg/ml and/or olaparib 6.6 μg/ml) 79.99 % solvent control; (HCC1143 spheroids, T72 h, EDO S101 10 μM alone or with carboplatin 40.84 μg/ml and/or olaparib 6.6 μg/ml) 77.09 % solvent control. For the same compound, the residual cell viability (HCC1143 spheroids, after 48 h, EDO-S101 5 μm (alone or in combination)) turned out to be 86% and the residual cell viability (HCC1143 spheroids, after 48 h, EDO-S101 10 μm) came to 57%.

Consider `O=C(c1cc(Cc2n[nH]c(=O)c3ccccc23)ccc1F)N1CCN(C(=O)C2CC2)CC1` [Olaparib, reference compound], for which, under “human, 72 h”, the residual cell viability is 62%.

In the case of `N.N.O=C([O-])C1(C(=O)[O-])CCC1.[Pt+2]` [Carboplatin, reference compound], the mean cell viability was 118.28 % solvent control (HCC1143 p13 spheroids, T48 h, control agents: carboplatin 40.84 μg/ml, paclitaxel 1.53 μg/ml, olaparib 6.6 μg/ml) and 105.88 % solvent control (HCC1143 spheroids, T72 h, control agents: carboplatin 40.84 μg/ml, paclitaxel 1.53 μg/ml, olaparib 6.6 μg/ml).
